Laboratory results reported in patent publication US10004747B2, “Combination therapy” (Boehringer Ingelheim International GmbH, priority 2010, dated 2018).
Entries after “also recorded” stand apart in the source; their conditions may differ. Marks after values point to notes of the source that are not given here.

What was measured:
[1] = Pharmacokinetics of BI 1356 after multiple oral doses once daily for 12 days in patients with type 2 diabetes; details: for RA, AUC (accumulation ratio) / RA, Cmax (accumulation ratio): 12 days, type 2 diabetes patients, gMean
[2] = Linagliptin alone or with low-dose exenatide for 28 days: plasma parameters and body composition in DIO rats
[3] = Day 29, DIO rats, vehicle pump + Linagliptin 3 mg/kg PO, mean ± SEM

In the case of CC#CCn1c(N2CCC[C@@H](N)C2)nc2c1c(=O)n(Cc1nc(C)c3ccccc3n1)c(=O)n2C [BI 1356], the “RA, AUC (accumulation ratio)” value ([1]; 1 mg once daily oral) is reported as 2.03, the “RA, Cmax (accumulation ratio)” value ([1]; 1 mg once daily oral) is reported as 1.44 and the “RA, AUC (accumulation ratio)” value ([1]; 2.5 mg once daily oral) is reported as 1.37. The “RA, Cmax (accumulation ratio)” value ([1]; 2.5 mg once daily oral) was 1.25, the “RA, AUC (accumulation ratio)” value ([1]; 5 mg once daily oral) was 1.33 and the “RA, Cmax (accumulation ratio)” value ([1]; 5 mg once daily oral) was 1.33. The “RA, AUC (accumulation ratio)” value ([1]; 10 mg once daily oral) was 1.18, the “RA, Cmax (accumulation ratio)” value ([1]; 10 mg once daily oral) was 1.40 and the “excretion via the kidney” value ([1]; therapeutic oral dose levels) was < 7 % of the administered oral dose. For the same compound, the “main route of excretion” value ([1]; therapeutic oral dose levels) was “mainly excreted via the liver; also recorded: primarily excreted unchanged via the bile”, the “Carcass Fat” value [2, 3] was 151.1 ± 7.3 g and the “Carcass Protein” value [2, 3] was 63.8 ± 4.0 g. The “Carcass Water” value [2, 3] was 212.6 ± 3.4 g, the “GLP-1 (pM)” value [2, 3] was 5.72 ± 0.9^b pM and the “Glucose” value [2, 3] was 8.72 ± 0.22 mM. The “Insulin” value [2, 3] was 1.82 ± 0.36 ng/mL, the “Leptin” value [2, 3] was 23.9 ± 2.5 ng/mL and the “augmentation of the effect of a low dose of exenatide” value ([2]; linagliptin 3 mg/kg po in combination with exenatide 3 μg/kg/day sc, 28 days, DIO rats) was “does not augment the effect of a low dose of exenatide”. The “effect on body weight, daily food intake, plasma glucose, insulin or carcass fat compared to vehicle-treated controls” value ([2]; rat, in vivo) was “no effect”, the “body weight from day 11 after exenatide treatment” value (BI 1356 3 mg/kg po from Day 11 after exenatide 30 μg/kg/day Day 1-10, DIO rats, vs vehicle control) was “stabilize their body weight at the new weight level” and the “less fat put on than vehicle-treated counterparts during exenatide withdrawal” value (linagliptin 3 mg/kg po after exenatide withdrawal, DIO rats, p=0.07) was 10.6%. For the same compound, the “body fat weight regain after GLP-1R agonist cessation” value (replacement of exenatide 30 μg/kg/day (Day 1-10) with linagliptin 3 mg/kg po from Day 11, DIO rats) was “prevents body fat weight regain”.
